How the values were obtained:
[1] = in water; cited from earlier work
[2] = molecular target: T1, glucagon R (Homo sapiens, UniProt P47871); assay: glucagon cellular assay, stimulation of cAMP levels (Cerep SA); type: cell-based; conditions: cAMP generated in cells; n.c. means EC50 not calculable
T1 construct: Cerep SA
T1 sequence (P47871 26-477): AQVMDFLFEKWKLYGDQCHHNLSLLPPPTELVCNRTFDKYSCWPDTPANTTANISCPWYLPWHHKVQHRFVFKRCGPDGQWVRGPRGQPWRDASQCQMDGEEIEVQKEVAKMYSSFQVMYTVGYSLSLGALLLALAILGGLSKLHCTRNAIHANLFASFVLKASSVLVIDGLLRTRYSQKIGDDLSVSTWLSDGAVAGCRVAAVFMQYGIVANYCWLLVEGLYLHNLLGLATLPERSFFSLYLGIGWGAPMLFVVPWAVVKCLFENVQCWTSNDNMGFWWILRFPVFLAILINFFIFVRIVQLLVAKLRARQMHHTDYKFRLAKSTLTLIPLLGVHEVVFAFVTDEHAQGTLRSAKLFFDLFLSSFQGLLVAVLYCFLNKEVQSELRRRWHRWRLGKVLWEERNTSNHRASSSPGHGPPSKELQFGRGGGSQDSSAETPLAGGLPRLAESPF
Method: Compounds were weighed precisely in an amount of approximately 1 mg and assayed in standard cellular assays (Cerep SA). The readout is the amount of cAMP generated in the cells treated with the test compounds, in either agonist or antagonist mode.

Compound	CMC [1] [mM]	EC50 [2] [µM]
CCCCCCCCCCCCCCO[C@@H]1O[C@H](CO)[C@@H](O[C@@H]2O[C@@H](CO)[C@H](O)[C@@H](O)[C@@H]2O)[C@H](O)[C@H]1O (stereo in doubt) [Tetradecyl maltoside]	0.01	–
CCCCCCCCCCCCCO[C@@H]1O[C@H](CO)[C@@H](OC2OC(CO)C(O)C(O)C2O)[C@H](O)[C@H]1O (stereo in doubt) [Tridecyl maltoside]	0.03	–
CCCCCCCCCCO[C@@H]1O[C@H](CO)[C@@H](O[C@H]2O[C@H](CO)[C@@H](O)[C@H](O)[C@H]2O)[C@H](O)[C@H]1O [Decyl maltoside]	1.8	–
CCCCCCCCCCCCO[C@@H]1O[C@H](CO)[C@@H](O[C@H]2O[C@H](CO)[C@@H](O)[C@H](O)[C@H]2O)[C@H](O)[C@H]1O [Dodecyl-β-D-maltoside]	0.17	–
CCCCCCCCCCCCO[C@@H]1O[C@H](C(=O)NCCCC[C@H](NC(=O)[C@@H]2CCCCNC(=O)CC[C@H](NC(=O)[C@H](CC(=O)O)NC(=O)[C@H](CC(C)C)NC(=O)[C@H](Cc3ccc(O)cc3)NC(=O)[C@H](CCCCN)NC(=O)[C@H](CO)NC(=O)[C@H](Cc3ccc(O)cc3)NC(=O)[C@H](CC(=O)O)NC(=O)[C@H](CO)NC(=O)[C@@H](NC(=O)[C@H](Cc3ccccc3)NC(=O)[C@@H](NC(=O)CNC(=O)[C@H](CCC(N)=O)NC(=O)C(C)(C)NC(=O)[C@@H](N)Cc3c[nH]cn3)[C@@H](C)O)[C@@H](C)O)C(=O)N[C@@H](CCCNC(=N)N)C(=O)N[C@@H](C)C(=O)N[C@@H](C)C(=O)N2)C(=O)N[C@@H](Cc2ccccc2)C(=O)NC(C)(C)C(N)=O)[C@@H](O)[C@H](O)[C@H]1O [EU-A455]	–	0.77
CCCCCCCCO[C@@H]1O[C@H](CO)[C@@H](O[C@H]2O[C@H](CO)[C@@H](O)[C@H](O)[C@H]2O)[C@H](O)[C@H]1O [Octyl maltoside]	19.5	–
Sucrose dodecanoate	0.3	–

— patent publication US10471127B2, “Peptide pharmaceuticals for insulin resistance” (Mederis Diabetes, LLC, priority 2011, dated 2019)
